The subject of data set [1] is oilseed rape homozygous for HETO132 and HETO134 (132-134). Briefly: Field herbicide tolerance, visible phytotoxicity (ALS I W574L, ALS III P197S-W574L). In kind it is in vivo, Brassica napus. Particulars: gai/ha: imazamox 40, bispyribac-sodium 50, propoxycarbazone-sodium 70, mesosulfuron-methyl 60, pyroxsulam 12.5 + cloquintocet-mexyl 37.5, each + rapeseed oil methylated 366.5. From the text:
(§1) Seeds of spring oilseed rape homozygous for HETO139 and HETO134 were sown in a field according to typical practical agricultural methods together with seeds homozygous for HETO134 and HETO133 (comprising a W574L mutation on ALS III, which were obtained in the same way as HETO134), and with seeds homozygous for HETO134 and HETO132 (comprising a P197S and a W574L mutation on ALS III, which were obtained in essentially the same way as HETO139). Several ALS inhibitor herbicides were applied to the oilseed rape plants by using specific spray equipment for small plot applications.

For data set [2], the system named is oilseed rape homozygous for HETO139 and HETO134 (139-134). Briefly: Field herbicide tolerance, visible phytotoxicity (ALS I W574L, ALS III P197S-D376E). Format: in vivo, Brassica napus. The following applies: gai/ha: imazamox 40, bispyribac-sodium 50, propoxycarbazone-sodium 70, mesosulfuron-methyl 60, pyroxsulam 12.5 + cloquintocet-mexyl 37.5, each + rapeseed oil methylated 366.5.
Excerpt: as §1

The target in data set [3] is AHAS P197S-D376E-W574L (Arabidopsis thaliana, UniProt P17597, D376E/E575Q/P197S/W574L). Put plainly: biochemical. Particulars: for Resistance Factor: AHAS P197S-D376E-W574L. The method, then: (§2) Bacteria are grown at 37° C. in LB-medium containing 100 mg/l carbenicillin and 25 mg/l canamycin, induced with 1 mM isopropyl-β-D-thiogalactopyranoside at an OD600 of 0.6, cultivated for 16 hours at 18° C. and harvested by, e.g., centrifugation. Bacterial pellets are resuspended in 100 mM sodium phosphate buffer pH 7.0 containing 0.1 mM thiamine-pyrophosphate, 1 mM MgCl2, and 1 μM FAD at a concentration of 1 gram wet weight per 25 ml of buffer and disrupted by, e.g., sonification. The crude protein extract obtained after centrifugation is used for ALS activity measurements.
Sequence of AHAS P197S-D376E-W574L (P17597 56-670 P197S/D376E/W574L/E575Q): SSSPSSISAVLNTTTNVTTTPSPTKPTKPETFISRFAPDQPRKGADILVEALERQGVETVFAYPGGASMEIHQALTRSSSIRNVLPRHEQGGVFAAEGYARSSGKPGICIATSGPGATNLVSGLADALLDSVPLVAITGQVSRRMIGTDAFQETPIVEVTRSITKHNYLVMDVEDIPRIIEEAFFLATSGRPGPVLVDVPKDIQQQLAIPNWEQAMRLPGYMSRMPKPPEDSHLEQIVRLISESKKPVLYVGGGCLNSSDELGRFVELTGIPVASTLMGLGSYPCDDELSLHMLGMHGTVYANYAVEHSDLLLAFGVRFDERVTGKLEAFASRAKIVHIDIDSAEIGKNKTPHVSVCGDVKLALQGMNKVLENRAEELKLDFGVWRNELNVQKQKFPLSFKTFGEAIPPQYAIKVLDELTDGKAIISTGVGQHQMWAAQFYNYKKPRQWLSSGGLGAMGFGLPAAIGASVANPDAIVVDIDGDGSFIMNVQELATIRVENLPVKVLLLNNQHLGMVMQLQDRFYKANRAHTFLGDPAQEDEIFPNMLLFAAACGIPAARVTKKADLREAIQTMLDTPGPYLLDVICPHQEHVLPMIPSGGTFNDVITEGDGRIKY
(§3) ALS protein can be extracted from leaves or tissue cultures, such as B. napus or B. juncea leaves, or B. napus or B. juncea tissue cultures as described by Ray (Plant Physiol, 1984, 75:827-831). An ALS assays can be carried out in 96-well microtiter plates using a modification of the procedure described by Ray (1984): The reaction mixture contains 20 mM potassium phosphate buffer pH 7.0, 20 mM sodium pyruvate, 0.45 mM thiamine-pyrophosphate, 0.45 mM MgCl2, 9 μM FAD. ALS enzyme and various concentrations of ALS inhibitors can be mixed in a final volume of 90 μl Assays can be initiated by adding enzyme and the assays can be terminated after 75 min incubation at 30° C. by the addition of 40 μl 0.5 M H2SO4.

Data set [4] has as its target AHAS P197S-W574L (Arabidopsis thaliana, UniProt P17597, E575Q/P197S/W574L). Put plainly: biochemical. The following applies: for Resistance Factor: AHAS P197S-W574L. The method, then: as §2, §3
Data set [5] addresses AHAS P197S-D376E (Arabidopsis thaliana, UniProt P17597, D376E/E575Q/P197S). Put plainly: biochemical. The following applies: for Resistance Factor: AHAS P197S-D376E. The method, then: as §2, §3
For data set [6], the target named is AHAS D376E-W574L (Arabidopsis thaliana, UniProt P17597, D376E/E575Q/W574L). Put plainly: biochemical. Particulars: for Resistance Factor: AHAS D376E-W574L. On the procedure:
as §2, §3

The target of data set [7] is AHAS D376E (Arabidopsis thaliana, UniProt P17597, D376E/E575Q). Briefly: biochemical. The following applies: for Resistance Factor: AHAS D376E. The method, then:
as §2, §3

Data set [8] has as its system wild-type (WT) oilseed rape. Briefly: Field herbicide tolerance, visible phytotoxicity. In kind it is in vivo, Brassica napus. The following applies: gai/ha: imazamox 40, bispyribac-sodium 50, propoxycarbazone-sodium 70, mesosulfuron-methyl 60, pyroxsulam 12.5 + cloquintocet-mexyl 37.5, each + rapeseed oil methylated 366.5.
The target in data set [9] is AHAS W574L (Arabidopsis thaliana, UniProt P17597, E575Q/W574L). In kind it is biochemical. The method, then: as §2, §3
Sequence of AHAS W574L (P17597 56-670 W574L/E575Q): as the sequence (P17597 56-670 P197S/D376E/W574L/E575Q) above, with S142P, E321D counted along it
Data set [10] has as its target AHAS P197S (Arabidopsis thaliana, UniProt P17597, E575Q/P197S). In kind it is biochemical. On the procedure:
as §2, §3

Data set [11] deals with oilseed rape homozygous for HETO133 and HETO134 (133-134). Put plainly: Field herbicide tolerance, visible phytotoxicity (ALS I W574L, ALS III W574L). The following applies: gai/ha: imazamox 40, bispyribac-sodium 50, propoxycarbazone-sodium 70, mesosulfuron-methyl 60, pyroxsulam 12.5 + cloquintocet-mexyl 37.5, each + rapeseed oil methylated 366.5. In kind it is in vivo, Brassica napus.
Excerpt: as §1

Data set [12] addresses AHAS WT (Arabidopsis thaliana, UniProt P17597). Briefly: biochemical. The method, then: as §2, §3
The test system of data set [13] is AHAS enzymatic activity. Briefly: Kinetic parameters of enzymatic activity of AHAS mutants. Format: biochemical. On the procedure: The ALS inhibitor sensitivity and kinetic parameters of AHAS proteins comprising the P197S mutation, the W574L mutation, the D376E mutation, and combinations thereof in one protein, were determined essentially as described in WO 2013/127766.

Residue numbers refer to the chain shown, from its start. Names and notes keep the numbering of the source.

As usually defined, the IC50 is the point on the concentration scale where inhibition reaches its midpoint. A higher IC50 goes with a need for much substance. Broadly, the Km is the concentration of substrate that gives half-maximal velocity.

Sequence of AHAS WT (P17597 56-670 E575Q): as the sequence (P17597 56-670 P197S/D376E/W574L/E575Q) above, with S142P, E321D, L519W counted along it
Sequence of AHAS D376E-W574L (P17597 56-670 D376E/W574L/E575Q): as the sequence (P17597 56-670 P197S/D376E/W574L/E575Q) above, with S142P counted along it
Sequence of AHAS P197S-D376E (P17597 56-670 P197S/D376E/E575Q): as the sequence (P17597 56-670 P197S/D376E/W574L/E575Q) above, with L519W counted along it
Sequence of AHAS P197S-W574L (P17597 56-670 P197S/W574L/E575Q): as the sequence (P17597 56-670 P197S/D376E/W574L/E575Q) above, with E321D counted along it
Sequence of AHAS P197S (P17597 56-670 P197S/E575Q): as the sequence (P17597 56-670 P197S/D376E/W574L/E575Q) above, with E321D, L519W counted along it

With `COc1cc(OC)nc(Oc2cccc(Oc3nc(OC)cc(OC)n3)c2C(=O)O)n1` [Bispyribac-sodium, bispyribac-sodium], the Percentage phytotoxicity came out at 46.7% in data set [1] (9 DAA); 71.7% in [1] (16 DAA); 43.3% in data set [1] (24 DAA); 40% in data set [2] (9 DAA); 65% in [2] (16 DAA); 43.3% in data set [2] (24 DAA). In addition, the Percentage phytotoxicity in data set [8] (9 DAA) is 76.7%; in data set [8] (16 DAA), 98.3%; in data set [8] (24 DAA), 100%; in data set [11] (9 DAA) it was 56.7%; in [11] (16 DAA) it was 88.3%; in [11] (24 DAA), 92.7%. Also, the IC50 in data set [3] is greater than 100 µM; in data set [4], greater than 100 µM; in data set [5], 7.94 µM; in [6] it was greater than 100 µM; in [7], 1 µM. For the same molecule, the “Resistance Factor” value in data set [3] is listed as greater than 5623; in data set [4], greater than 5623; in [5], 447; in data set [6], greater than 5623; in data set [7], 56; in data set [9], 447. The “Resistance Factor” value in data set [10] is on record as 4.

As for `COCc1cnc(C2=NC(C)(C(C)C)C(=O)N2)c(C(=O)O)c1` (stereo not drawn) [Imazamox, imazamox], the Percentage phytotoxicity in data set [1] (9 DAA) was 6.7%; in data set [1] (16 DAA), 8.7%; in data set [1] (24 DAA) it was 0%; in data set [2] (9 DAA), 13.3%; in data set [2] (16 DAA), 13.3%; in [2] (24 DAA) it was 0%. In addition, the Percentage phytotoxicity in [8] (9 DAA) is recorded as 73.3%; in [8] (16 DAA), 98%; in [8] (24 DAA) it was 99%; in data set [11] (9 DAA), 6.7%; in data set [11] (16 DAA), 10%; in [11] (24 DAA) it was 0%. In addition, the IC50 in [3] was greater than 100 µM; in data set [4], greater than 100 µM; in data set [5] it was greater than 100 µM; in [6] it was greater than 100 µM; in data set [7] it was 50.1 µM. Also, the “Resistance Factor” value in data set [3] is greater than 22; in data set [4], greater than 22; in [5] it was greater than 22; in [6], greater than 22; in [7] it was 11; in data set [9], greater than 22. Further, the “Resistance Factor” value in data set [10] was found to be 1.

For the molecule `COc1cc(OC)nc(NC(=O)NS(=O)(=O)c2ncccc2C(=O)N(C)C)n1` [Nicosulfuron, nicosulfuron], the IC50 is 0.158 µM in data set [12]; greater than 100 µM in data set [3]; greater than 100 µM in [4]; greater than 100 µM in data set [5]; greater than 100 µM in data set [6]; greater than 100 µM in data set [7]. Moreover, the “Resistance Factor” value in data set [3], in data set [4], in data set [5], in data set [6], in [7] and in data set [9] was greater than 607 throughout. Also, in [10], the “Resistance Factor” value came out at 6.

On to `CCS(=O)(=O)c1cccnc1S(=O)(=O)NC(=O)Nc1nc(OC)cc(OC)n1` [Rimsulfuron, rimsulfuron], for which the IC50 in data set [12] is 0.02 µM; in data set [3], greater than 100 µM; in data set [4], greater than 100 µM; in data set [5] it was greater than 100 µM; in [6] it was greater than 100 µM; in [7], 1.26 µM. Besides, the “Resistance Factor” value in data set [3] was greater than 4466; in data set [4] it was greater than 4466; in data set [5] it was greater than 4466; in [6], greater than 4466; in [7] it was 56; in data set [9] it was 447. Further, the “Resistance Factor” value in data set [10] turned out to be 18.

For `CCS(=O)(=O)c1nc2ccccn2c1S(=O)(=O)NC(=O)Nc1nc(OC)cc(OC)n1` [Sulfosulfuron, sulfosulfuron], the IC50 was 0.02 µM in data set [12]; greater than 100 µM in data set [3]; greater than 100 µM in data set [4]; greater than 100 µM in data set [5]; greater than 100 µM in [6]; 25.1 µM in [7]. The “Resistance Factor” value in data set [3] is greater than 4641; in data set [4], greater than 4641; in data set [5], greater than 4641; in data set [6], greater than 4641; in data set [7], 1166; in data set [9], greater than 4641. For the same molecule, the “Resistance Factor” value in [10] was determined as 1848.

B1: D376E: AHAS protein with glutamic acid instead of aspartic acid at position 376 of SEQ ID NO: 10 (protein, listed as Arabidopsis thaliana)
chain: MAAATTTTTTSSSISFSTKPSPSSSKSPLPISRFSLPFSLNPNKSSSSSRRRGIKSSSPSSISAVLNTTTNVTTTPSPTKPTKPETFISRFAPDQPRKGADILVEALERQGVETVFAYPGGASMEIHQALTRSSSIRNVLPRHEQGGVFAAEGYARSSGKPGICIATSGPGATNLVSGLADALLDSVPLVAITGQVPRRMIGTDAFQETPIVEVTRSITKHNYLVMDVEDIPRIIEEAFFLATSGRPGPVLVDVPKDIQQQLAIPNWEQAMRLPGYMSRMPKPPEDSHLEQIVRLISESKKPVLYVGGGCLNSSDELGRFVELTGIPVASTLMGLGSYPCDDELSLHMLGMHGTVYANYAVEHSDLLLAFGVRFDERVTGKLEAFASRAKIVHIDIDSAEIGKNKTPHVSVCGDVKLALQGMNKVLENRAEELKLDFGVWRNELNVQKQKFPLSFKTFGEAIPPQYAIKVLDELTDGKAIISTGVGQHQMWAAQFYNYKKPRQWLSSGGLGAMGFGLPAAIGASVANPDAIVVDIDGDGSFIMNVQELATIRVENLPVKVLLLNNQHLGMVMQWQDRFYKANRAHTFLGDPAQEDEIFPNMLLFAAACGIPAARVTKKADLREAIQTMLDTPGPYLLDVICPHQEHVLPMIPSGGTFNDVITEGDGRIKY
As to B1, in [13], the Km is 1.4 mM, the Vmax is recorded as 103.0 deltaOD550/min mg protein and the “relative Vmax” value was determined as 2.7.

B2: W574L: AHAS protein with leucine instead of tryptophan at position 574 of SEQ ID NO: 10 (protein, listed as Arabidopsis thaliana)
chain: B1 chain with E376D, W574L
For B2, in data set [13], the Km is 7 mM, the Vmax turned out to be 54.4 deltaOD550/min mg protein and the “relative Vmax” value stood at 1.4.

B3: P197S: AHAS protein with serine instead of proline at position 197 of SEQ ID NO: 10 (protein, listed as Arabidopsis thaliana)
chain: B1 chain with P197S, E376D
Take B3: in data set [13], the Km is 5.5 mM, the Vmax worked out at 50.0 deltaOD550/min mg protein and the “relative Vmax” value came to 1.3.

Source of the values: patent publication US20160298129A1, “ALS INHIBITOR HERBICIDE TOLERANT MUTANT PLANTS” (BAYER CROPSCIENCE NV, priority 2013, published 2016).
